From publication PMC12128972, “TYRA-300, an FGFR3-selective inhibitor, promotes bone growth in two FGFR3-driven models of chondrodysplasia” (JCI Insight, 2025)
Several values for one entry are separate records, joined by “and”; a condition that tells them apart may be missing. Equal values may be shown once.

What was measured:
[1] = system: Fgfr3^N534K/+ mouse model of HCH; assay: Fgfr3N534K/+ mice: long bone length; assay type: in vivo; details: 2.4 mg/kg dose, data not shown
[2] = system: Fgfr3^N534K/+ mouse model of HCH; assay: Fgfr3N534K/+ mice: long bone length; assay type: in vivo
Procedure: To explore the effectiveness of TYRA-300 in an additional model of FGFR3-related chondrodysplasia, TYRA-300 was evaluated in a Tg-CMV^Cre/+/Fgfr3^N534K/+ mouse model of HCH ([42]). This model is driven by the Fgfr3 N534K mutation, which corresponds to the human FGFR3 N540K mutation ([9], [43]). This model closely recapitulates the skeletal phenotype of HCH in humans, with a milder disproportionate short stature phenotype ([42]). […] Because the goal of treatment with TYRA-300 is to […] Fgfr3 signaling levels, Fgfr3^N534K/+ mice were administered a lower dose of 1.8 mg/kg TYRA-300 daily for the full study. Mice were treated for 21 days, from 3 to 24 days of age. Treatment was started at an older age in the HCH model than in the ACH model, as children with HCH are often diagnosed later than children with ACH.
Tg-CMV^Cre/+/Fgfr3^N534K/+ mice were tattooed and assigned to treatment groups within each litter at 3 days of age (wild-type mice, Fgfr3^N534K/+ mice treated with vehicle, or Fgfr3^N534K/+ mice treated with 1.8 mg/kg TYRA-300). TYRA-300 was dissolved in aqueous HCl (3.5 mM) containing 5% DMSO and administered subcutaneously to Fgfr3^N534K/+ mice (n = 9) for 21 days. The vehicle was administered to wild-type (n = 12) or Fgfr3^N534K/+ mice (n = 11) for 21 days. Subcutaneous administration was used for this study rather than oral gavage due to the size of the mice. Clinical observations, nasoanal length, and tail length measurements were performed every 3 days, and body weights were collected daily.
(§1) Whole body x-ray images were taken of all animals by Faxitron specimen radiography MX-20 (Faxitron X-Ray LLC) following terminal sacrifice. The length of the L4–L6 lumbar vertebra segment was also measured for each animal using calipers, and the height of the L5 vertebral body was measured from Alcian blue/Sirius red images. Long bones and the skull were then excised, and their dimensions were measured using calipers (VWRi819-0013, VWR International). The transverse and sagittal diameters of the foramen magnum were also measured using calipers for the Fgfr3^Y367/+ model, and measured using the μCT images for the Fgfr3^N534K/+ model.

[3] = system: Fgfr3^Y367C/+ mouse model, which mimics the phenotype of ACH; assay: Fgfr3Y367C/+ mice: growth, body weight and long bone length (calipers, x-ray); assay type: in vivo; parameters: nasoanal length, individual mice / tail length, individual mice: unit not given here; details: for nasoanal length, individual mice / tail length, individual mice / body weight, individual mice: 1.2 mg/kg/d s.c. from day 1
Procedure: In this study, Fgfr3^Y367C/+ mice were administered TYRA-300 daily by subcutaneous injection at a dose of 1.2 mg/kg for 15 days beginning at 1 day of age to evaluate the effects on growth, bone length, and key skeletal parameters, compared with those of vehicle-treated Fgfr3^Y367C/+ mice. Results were also compared with those from vehicle-treated Fgfr3^+/+ (wild-type) mice. […] In Fgfr3^Y367C/+ mice, the […], resulting in disproportionate long bones.
Tg-CMV^Cre/+/Fgfr3^Y367C/+ mice were tattooed and assigned to treatment groups within each litter at 1 day of age (wild-type mice, Fgfr3^Y367/+ mice treated with vehicle, or Fgfr3^Y367/+ mice treated with 1.2 mg/kg TYRA-300). TYRA-300 was dissolved in aqueous HCl (3.5 mM) containing 5% dimethyl sulfoxide (DMSO) and administered subcutaneously to Fgfr3^Y367/+ mice (n = 8) for 15 days. The vehicle was administered to wild-type (n = 10) or Fgfr3^Y367/+ mice (n = 10) for 15 days. Subcutaneous administration was used for this study rather than oral gavage due to the reduced size of the mice. Clinical observations, nasoanal length and tail length measurements were performed every 3 days, and body weights were collected daily.
as §1

[4] = system: lumbar vertebrae of Fgfr3^Y367C/+ mice; assay: Fgfr3Y367C/+ mice: lumbar vertebrae and intervertebral discs (calipers, histology); assay type: in vivo, mouse; details: 1.2 mg/kg s.c. daily for 15 days
Procedure: Individuals with ACH frequently experience back pain and may undergo multiple spinal surgeries throughout their lives ([40]). Kyphosis and scoliosis are common with ACH and are also observed in the Fgfr3^Y367C/+ mouse model ([40]), and Fgfr3 is expressed in the intervertebral discs of Fgfr3^Y367C/+ mice ([28]). To determine how TYRA-300 affects the vertebrae and intervertebral discs, the spine was analyzed in the Fgfr3^Y367C/+ mice treated with TYRA-300 or vehicle.
as §1
The right femur and lumbar vertebrae segment L4–L6 were collected and fixed in 4% paraformaldehyde, decalcified with ethylenediaminetetraacetic acid (EDTA) 0.5 M (pH 8) for 2 or 3 weeks, and embedded in paraffin. Serial paraffin sections of 5 μm were stained with hematoxylin, eosin, and Safranin O. For immunohistochemistry, sections were labeled with antibodies against collagen type X (BIOCYC ref. [1]-CO097-05-RUO, 1:100 dilution), collagen type I (Novotec, 20151, dilution 1:1,000), pERK (Cell Signaling, 4370S, dilution 1:1,000), and PCNA (Abcam, GR3195972-6, 1:500 dilution) using the Dako Envision Kit. Images were captured with an Olympus PD70-IX2-UCB microscope and CellSens software (Olympus Life Science Solutions). Cells were counted using ImageJ software (NIH, Laboratory for Optical Computational Instrumentation).

[5] = 1.8 mg/kg daily s.c. for 21 days, 3 to 24 days of age
[6] = Fgfr3N534K/+ mice + TYRA-300, individual animal values, in mm (unit assumed)
[7] = 1.2 mg/kg s.c. daily for 15 days
[8] = 1.2 mg/kg s.c. daily for 15 days from 1 day of age
[9] = Fgfr3Y367C/+ mice + TYRA-300, individual animal values, in mm (unit assumed)

SMILES: C[C@@H](Oc1ccc2[nH]nc(-c3ccc(N4CC5(C4)CN(S(C)(=O)=O)C5)nc3)c2c1)c1c(Cl)cncc1Cl [TYRA-300]
- phenotypic observations in preliminary dose exploration [1]: phenotypic signs consistent with the Fgfr3^–/– model were observed
- increase in femur length vs vehicle [2, 5]: 3.70%
- increase in humerus length vs vehicle [2, 5]: 3.22%
- increase in tibia length vs vehicle [2, 5]: 3.75%
- increase in ulna length vs vehicle [2, 5]: 5.03%
- source data of Figure 4A (sheet "4A"): long bone length, bone not given [2, 6]: 12.31 and 12.55 and 12.375 and 11.91 and 12.485 and 12.9 and 12.58 and 12.185 and 11.555
- source data of Figure 4B (sheet "4B"): long bone length, bone not given [2, 6]: 10.06 and 10.16 and 10.36 and 9.8 and 10.2 and 10.18 and 10.1 and 10.15 and 9.47
- source data of Figure 4C (sheet "4C"): long bone length, bone not given [2, 6]: 10.705 and 10.605 and 11.015 and 10.35 and 10.8 and 10.795 and 10.61 and 11.13 and 10.195
- source data of Figure 4D (sheet "4D"): long bone length, bone not given [2, 6]: 8.28 and 8.42 and 8.455 and 8.1 and 8.32 and 8.43 and 8.22 and 8.35 and 8.08
- average normalization of long bone length toward wild-type ([2]; HCH model, 1.8 mg/kg): 25%
- increase in length of the femur vs vehicle [3, 7]: 22.55%
- increase in length of the humerus vs vehicle [3, 7]: 15.52%
- increase in length of the tibia vs vehicle [3, 7]: 33.01%
- increase in length of the ulna vs vehicle [3, 7]: 23.51%
- increase in nasoanal length vs vehicle-treated mutant mice [3, 8]: 17.88%
- increase in tail length vs vehicle-treated mutant mice [3, 8]: 25.10%
- increase in body weight vs vehicle-treated mice ([3]; 1.2 mg/kg s.c. daily, end of treatment): 52.9%
- nasoanal length, individual mice ([3]; day 1): 29 (4×) and 30 and 28 and 31 (2×)
- tail length, individual mice ([3]; day 1): 12 and 13 (6×) and 14
- body weight, individual mice ([3]; day 1, in g (unit assumed)): 1.56 and 1.58 and 1.46 and 1.33 and 1.47 and 1.4 and 1.37 and 1.6
- body weight, individual mice ([3]; day 2, in g (unit assumed)): 1.72 and 1.94 and 1.84 and 1.42 and 1.55 and 1.46 and 1.53 and 2.01
- body weight, individual mice ([3]; day 3, in g (unit assumed)): 1.9 and 2.33 and 2.12 and 1.64 and 1.76 and 1.63 and 1.84 and 2.4
- nasoanal length, individual mice ([3]; day 4): 32 and 34 (2×) and 35 and 31 and 33 (3×)
- tail length, individual mice ([3]; day 4): 17 (3×) and 18 and 19 and 16 (2×) and 15
- body weight, individual mice ([3]; day 4, in g (unit assumed)): 2.07 and 2.76 and 2.5 and 1.89 and 2.29 and 1.86 and 2.18 and 2.91
- body weight, individual mice ([3]; day 5): 2.2 (2×) and 3.12 and 2.97 and 2.23 and 2.52 and 2.53 and 3.27
- body weight, individual mice ([3]; day 6, in g (unit assumed)): 2.34 and 3.32 and 3.31 and 2.62 and 2.85 and 2.61 and 2.97 and 3.58
- nasoanal length, individual mice ([3]; day 7): 35 and 40 and 39 and 34 and 36 (4×)
- tail length, individual mice ([3]; day 7): 25 and 23 (3×) and 21 (2×) and 24 and 22
- body weight, individual mice ([3]; day 7, in g (unit assumed)): 2.5 and 3.76 and 3.67 and 3.01 and 3.07 and 3 and 3.31 and 4
- body weight, individual mice ([3]; day 8, in g (unit assumed)): 2.88 and 4.38 and 4.13 and 3.59 and 3.58 and 3.33 and 3.74 and 4.2
- body weight, individual mice ([3]; day 9): 3.25 and 4.59 (2×) and 4.2 and 3.92 and 3.86 and 3.97 and 4.66
- nasoanal length, individual mice ([3]; day 10): 40 (3×) and 42 (3×) and 38 and 41
- tail length, individual mice ([3]; day 10): 25 and 28 and 27 (3×) and 26 (2×) and 29
- body weight, individual mice ([3]; day 10, in g (unit assumed)): 3.5 and 5.05 and 4.73 and 4.46 and 4.52 and 4.17 and 4.41 and 4.98
- body weight, individual mice ([3]; day 11, in g (unit assumed)): 3.7 and 5.46 and 5.06 and 4.65 and 4.64 and 4.44 and 4.99 and 5.57
- body weight, individual mice ([3]; day 12, in g (unit assumed)): 4.17 and 6.04 and 5.26 and 5.13 and 4.96 and 4.59 and 5.3 and 5.5
- nasoanal length, individual mice ([3]; day 13): 41 and 46 (2×) and 44 (2×) and 43 and 42 and 45
- tail length, individual mice ([3]; day 13): 31 (4×) and 35 (3×) and 32
- body weight, individual mice ([3]; day 13, in g (unit assumed)): 4.57 and 6.33 and 5.41 and 5.39
- nasoanal length, individual mice ([3]; day 16): 42 and 47 (2×) and 48 and 46 (2×) and 44 and 50
- tail length, individual mice ([3]; day 16): 33 (2×) and 36 (4×) and 34 and 35
- average normalization of long bone length toward wild-type ([3]; ACH model, 1.2 mg/kg): 26%
- source data of Figure 2E (sheet "2E"): long bone length, bone not given [3, 9]: 7.38 and 6.94 and 7.67 and 7.62 and 7.75 and 7.48 and 7.35 and 7.46
- source data of Figure 2F (sheet "2F"): long bone length, bone not given [3, 9]: 6.52 and 6.4 and 6.85 and 6.87 and 5.9 and 6.57 and 6.71
- source data of Figure 2G (sheet "2G"): long bone length, bone not given [3, 9]: 6.5 and 6.23 and 7.03 and 6.67 and 6.08 and 7.07 and 6.74 and 6.82
- source data of Figure 2H (sheet "2H"): long bone length, bone not given [3, 9]: 5.78 and 5.71 and 6.17 and 5.84 and 6.2 and 5.91 and 5.85 and 6.02
- bone growth compared with low-dose infigratinib (0.5 mg/kg) ([3]; TYRA-300 1.2 mg/kg, 15 days starting at 1 day of age, comparator data ref 28, 29): more bone growth than low-dose infigratinib
- height of the vertebral bodies vs vehicle [4]: increased the height of the vertebral bodies
- increase in L4-L6 lumbar vertebrae segment length vs vehicle [4]: 23.49%
- shape of the intervertebral disc [4]: decreasing the height and increasing the lateral width of the nucleus pulposus
